The text below walks through data of US20260083865A1, “PROSTATE SPECIFIC MEMBRANE ANTIGEN (PSMA) LIGANDS AND USE THEREOF” (priority 2022, published 2026).

Numbered stars: 1 amine (or outer) side, 2 acyl side, 3 side chain; on linkers, the order of the positions; unused ones are H or OH. Bridge positions count the residues as written; N and C are the ends. Square brackets hold non-standard residues; d marks the D form. Peptide text beside a SMILES is read from it. * marks the point of attachment. X3 = O=C(O)CN1CCN(CC(=O)O)CCN(CC(=O)NCCCOCCOCCOCCCN*)CCN(CC(=O)O)CC1; DOTA = O=C(O)CN1CCN(CC(=O)O)CCN(CC(=O)*)CCN(CC(=O)O)CC1; Phe(4-Cl) = N[C@@H](Cc1ccc(Cl)cc1)C(=O)O; 2Nal = N[C@@H](Cc1ccc2ccccc2c1)C(=O)O; Suc = O=C(CCC(=O)[*:2])[*:1]; Tle = CC(C)(C)[C@H](N)C(=O)O; X15 = O=C1NC(=O)C(CC(=O)*)N1; 4Amb = NCc1ccc(C(=O)O)cc1; Aib = CC(C)(N)C(=O)O; βAla = NCCC(=O)O

In experiment [1] the target is T1, Fc-fusion protein of human PSMA (hPSMA-Fc) (Homo sapiens, UniProt Q04609).
T1 construct: purchased Acro Biosystems PSA-H5264
Put plainly: Surface plasmon resonance assay (Biacore T200, single cycle kinetic). It counts as binding. As to conditions: pKD category for PSMA SPR activity assay, hPSMA-Fc, 25° C.; read-out: pKD CAT (converted). In outline:
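hPSMA-Fc was captured (~1000 RU) on an Fc-binding-peptide CM5 chip, and compounds were run in single cycle kinetic mode at 25° C in HBST with 0.1% DMSO. Double-blank-corrected sensorgrams were fitted to a 1:1 Langmuir model to give KD, reported as pKD.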
(Surface plasmon resonance follows binding to a sensor surface in real time, without labels.)

The target in experiment [2] is T2, PSMA-expressing C4-2 cells (Homo sapiens, UniProt Q04609).
T2 construct: PSMA-expressing C4-2 cells (ATCC, Cat. No. CRL-3314) were cultured in RPMI-1640; host or cells: C4-2 cells
The experiment can be described thus: FACS binding assay (competition with 50 nM PSM-0183). The note with it: pIC50 category of FACS binding, C4-2 cells; read-out: pIC50 [C4-2] CAT (converted). Summed up: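 C4-2 cells were incubated 1 h at 4 °C with 50 nM AF488-labelled peptide PSM-0183 plus increasing test compound concentrations, then washed twice in ice-cold buffer. Median fluorescence in the AF488 channel was read by flow cytometry. IC50/pIC50 was derived by 4PL fitting of MFI versus concentration.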
A general note: Flow cytometry measures light scatter and fluorescence of single cells or particles in a stream.

T2 sequence (Q04609 whole entry): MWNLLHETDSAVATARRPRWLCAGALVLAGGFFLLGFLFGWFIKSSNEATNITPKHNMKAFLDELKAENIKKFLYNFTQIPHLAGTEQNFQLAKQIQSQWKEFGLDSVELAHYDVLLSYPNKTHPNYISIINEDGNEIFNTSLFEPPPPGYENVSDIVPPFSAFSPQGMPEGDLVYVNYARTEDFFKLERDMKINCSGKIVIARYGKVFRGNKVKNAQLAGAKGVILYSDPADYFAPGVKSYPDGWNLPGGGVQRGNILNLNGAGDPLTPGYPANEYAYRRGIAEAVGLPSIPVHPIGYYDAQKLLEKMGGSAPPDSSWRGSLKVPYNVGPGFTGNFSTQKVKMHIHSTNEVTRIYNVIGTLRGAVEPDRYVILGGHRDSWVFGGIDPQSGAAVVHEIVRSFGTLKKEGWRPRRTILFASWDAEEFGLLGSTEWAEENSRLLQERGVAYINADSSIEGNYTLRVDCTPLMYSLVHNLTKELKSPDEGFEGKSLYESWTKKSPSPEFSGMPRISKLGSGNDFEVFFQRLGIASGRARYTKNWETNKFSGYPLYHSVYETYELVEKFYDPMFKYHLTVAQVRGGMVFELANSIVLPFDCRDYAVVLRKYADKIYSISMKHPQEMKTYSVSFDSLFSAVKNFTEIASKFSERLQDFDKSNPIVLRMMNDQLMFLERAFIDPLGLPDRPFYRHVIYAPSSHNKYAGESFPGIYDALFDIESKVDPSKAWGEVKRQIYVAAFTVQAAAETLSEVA
T1 sequence (Q04609 44-750 limits assumed): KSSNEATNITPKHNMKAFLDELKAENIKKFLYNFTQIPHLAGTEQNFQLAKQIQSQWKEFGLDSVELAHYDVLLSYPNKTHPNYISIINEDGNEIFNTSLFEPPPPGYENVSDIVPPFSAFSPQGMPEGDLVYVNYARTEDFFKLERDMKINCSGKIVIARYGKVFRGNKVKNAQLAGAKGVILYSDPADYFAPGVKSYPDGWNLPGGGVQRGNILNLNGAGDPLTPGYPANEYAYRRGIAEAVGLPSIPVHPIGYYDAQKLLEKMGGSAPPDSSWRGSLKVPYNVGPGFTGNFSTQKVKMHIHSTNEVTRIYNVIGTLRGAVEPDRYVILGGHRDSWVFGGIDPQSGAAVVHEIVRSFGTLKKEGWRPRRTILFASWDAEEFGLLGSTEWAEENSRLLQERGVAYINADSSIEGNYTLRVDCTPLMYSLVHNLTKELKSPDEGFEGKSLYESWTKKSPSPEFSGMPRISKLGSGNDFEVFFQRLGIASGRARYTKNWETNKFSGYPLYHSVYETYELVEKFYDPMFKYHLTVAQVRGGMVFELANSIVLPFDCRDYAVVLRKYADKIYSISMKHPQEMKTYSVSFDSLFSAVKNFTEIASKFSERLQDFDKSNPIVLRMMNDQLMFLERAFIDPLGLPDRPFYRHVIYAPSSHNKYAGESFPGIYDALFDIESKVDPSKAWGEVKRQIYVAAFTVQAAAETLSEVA

As for `CC(=O)N[C@H](C(=O)NC(C)(C)C(=O)N[C@@H](Cc1ccc(Cl)cc1)C(=O)N[C@H]1CSSC[C@@H](C(=O)N[C@H](C(=O)NCCC(N)=O)C(C)(C)C)NC(=O)[C@H](CC(N)=O)NC(=O)C(C)(C)NC(=O)[C@H](CCCNC(=N)N)NC(=O)[C@H](CCCCN)NC1=O)[C@@H](C)O` [PSM-0514, Ac-Thr-Aib-Pcf-[Cys-Lys-Arg-Aib-Asn-Cys]-Tle-Bal-NH2] (Ac-T[Aib][Phe(4-Cl)]CKR[Aib]NC[Tle][βAla]-NH2; disulfide 4-9), the Kd in experiment [1] is less than 12.6 nM. Also, the IC50 in experiment [2] is less than 200 nM.

On to `CC(=O)N[C@H](C(=O)NC(C)(C)C(=O)N[C@@H](Cc1ccc2ccccc2c1)C(=O)N[C@H]1CSSC[C@@H](C(=O)N[C@H](C(=O)N[C@H](C(=O)N[C@@H](CC(=O)O)C(N)=O)[C@@H](C)O)C(C)(C)C)NC(=O)[C@H](CC(N)=O)NC(=O)C(C)(C)NC(=O)[C@H](CCCNC(=N)N)NC(=O)[C@H](CCCCN)NC1=O)[C@@H](C)O` [PSM-0517, Ac-Thr-Aib-2Ni-[Cys-Lys-Arg-Aib-Asn-Cys]-Tle-Thr-Asp-NH2] (Ac-T[Aib][2Nal]CKR[Aib]NC[Tle]TD-NH2; disulfide 4-9), for which the Kd in experiment [1] is less than 12.6 nM. In experiment [2], the IC50 is less than 200 nM.

For `C[C@@H](O)[C@H](NC(=O)[C@@H](NC(=O)[C@@H]1CSSC[C@H](NC(=O)[C@H](Cc2ccccc2)NC(=O)C(C)(C)NC(=O)CC2NC(=O)NC2=O)C(=O)N[C@@H](CCCCN)C(=O)N[C@@H](CCCNC(=N)N)C(=O)NC(C)(C)C(=O)N[C@@H](CC(N)=O)C(=O)N1)C(C)(C)C)C(N)=O` (stereo partly drawn) [PSM-0518, HYDAc-Aib-Phe-[Cys-Lys-Arg-Aib-Asn-Cys]-Tle-Thr-NH2] (X15-[Aib]FCKR[Aib]NC[Tle]T-NH2; disulfide 3-8), the Kd in experiment [1] was less than 12.6 nM. Further, the IC50 in experiment [2] is less than 200 nM.

Take `C[C@@H](O)[C@H](NC(=O)[C@@H](NC(=O)[C@@H]1CSSC[C@H](NC(=O)[C@H](Cc2ccccc2)NC(=O)C(C)(C)NC(=O)[C@@H](NC(=O)CCC(=O)NCCCOCCOCCOCCCNC(=O)CN2CCN(CC(=O)O)CCN(CC(=O)O)CCN(CC(=O)O)CC2)[C@@H](C)O)C(=O)N[C@@H](CCCCN)C(=O)N[C@@H](CCC(N)=O)C(=O)NC(C)(C)C(=O)N[C@@H](CC(N)=O)C(=O)N1)C(C)(C)C)C(N)=O` [PSM-0521, DOTA-Ttds-Thr-Aib-Phe-[Cys-Lys-Gln-Aib-Asn-Cys]-Tle-Thr-NH2] ({X3-Suc}-T[Aib]FCKQ[Aib]NC[Tle]T-NH2; disulfide 4-9): the Kd in experiment [1] was 12.6 to 126 nM. Moreover, the IC50 in experiment [2] is 200 to 1260 nM.

As for `CC(=O)N[C@H](C(=O)NC(C)(C)C(=O)N[C@@H](Cc1ccccc1)C(=O)N[C@H]1CSSC[C@@H](C(=O)N[C@H](C(=O)N[C@H](C(=O)NCc2ccc(C(=O)N[C@H](CCCCNC(=O)CN3CCN(CC(=O)O)CCN(CC(=O)O)CCN(CC(=O)O)CC3)C(N)=O)cc2)[C@@H](C)O)C(C)(C)C)NC(=O)[C@H](CC(N)=O)NC(=O)C(C)(C)NC(=O)[C@H](CCCNC(=N)N)NC(=O)[C@H](CCCCN)NC1=O)[C@@H](C)O` [PSM-0522, Ac-Thr-Aib-Phe-[Cys-Lys-Arg-Aib-Asn-Cys]-Tle-Thr-Pamb-lys(DOTA)-NH2] (Ac-T[Aib]FCKR[Aib]NC[Tle]T[4Amb][dK](DOTA)-NH2; disulfide 4-9), the Kd in experiment [1] was less than 12.6 nM. The IC50 in experiment [2] is less than 200 nM.

Consider `CC(=O)N[C@@H](Cc1ccc(Cl)cc1)C(=O)N[C@H]1CSSC[C@@H](C(N)=O)NC(=O)[C@H](CC(N)=O)NC(=O)C(C)(C)NC(=O)[C@H](CCCNC(=N)N)NC(=O)[C@H](CCCCN)NC1=O` [PSM-0524, Ac-Pcf-[Cys-Lys-Arg-Aib-Asn-Cys]-NH2] (Ac-[Phe(4-Cl)]CKR[Aib]NC-NH2; disulfide 2-7), for which the Kd in experiment [1] was greater than 501 nM. For the same compound, in experiment [2], the IC50 is greater than 3160 nM.
